From publication PMC12152147, “DDB1 engagement defines the selectivity of S656 analogs for cyclin K degradation over CDK inhibition” (EMBO Reports, 2025)
Read-outs that look alike come from different tables or passages of the source.

How the values were obtained:
cyclin KeGFP = assay: Cyclin KeGFP reporter system (eGFP/mCherry MFI by flow cytometry);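 note: 10 μM compound for 3 h relative to DMSO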; assay type: cell-based, H. sapiens; settings: cyclin K-eGFP reporter
Description: We used the cyclin KeGFP reporter system previously described (Słabicki et al, [2020]). Lentiviral vector (Addgene plasmid #169930) was used to infect OCI-AML5 at a MOI of 5 and were selected with puromycin. Cells were seeded in methylcellulose and let grown as colonies for 10 days. Colonies were isolated, expanded and selected based on cyclin KeGFP fluorescence in presence and absence of cyclin K degrader molecules. Selected G7 clone was used for all reported experiments. Fluorescent signal of cyclin KeGFP and mCherry were quantified by flow cytometry (BD LSRII) in each condition and the geometric mean fluorescence intensity (MFI) were calculated using FlowJo (BD Biosciences). The ratio of eGFP to mCherry was normalized to DMSO-treated cells.

[1] = system: OCI-AML5 cells expressing shRNA targeting CUL4A or CUL4B; assay: Dose response in OCI-AML5 expressing shRNAs targeting CUL4A, CUL4B or control; assay type: cell-based, H. sapiens; settings: ratio of IC50 in shCUL4A vs shCTRL OCI-AML5 cells
[2] = system: OCI-AML5 cells expressing shRNAs targeting CDK1, 2, 4, 7, 9, cyclin K; assay: Dose response in OCI-AML5 expressing shRNAs targeting CDK1, 2, 4, 7, 9, cyclin K or control; assay type: cell-based, H. sapiens; settings: for Class: class from shRNA IC50 profile and cyclin K-eGFP degradation; for class based on cellular selectivity: IC50 in shRNA OCI-AML5 cells and cyclin KeGFP degradation
OCI-AML5 cells = assay: Dose-response proliferative assay in OCI-AML5 (4 days, CellTiterGlo); assay type: cell-based, H. sapiens; settings: read-out: IC50 in AML5
Description: Cell lines were purchased from the ATCC or donated from collaborators. OCI-AML5 cell line was cultured in αMEM, 10% heat-inactivated FBS supplemented with 10 ng/mL GM-CSF, OCI-AML1, U2OS and HEK293T cell lines in DMEM, 10% heat-inactivated FBS. Cells were maintained at 37 °C in 5% CO2 atmosphere.
Dose-response assays in primary AML specimens were performed as in chemical screen (see above) with the exception that compounds were tested in serial dilution (8 dilutions, 1:4, 10 μM down to 0.5 nM). Dose-response assays in OCI-AML5 cell line were conducted similarly with the following modifications: 300 cells per well were seeded in 50 μL of cell line media and cell viability was evaluated after 4 days in culture.

CDK9/CyclinT = molecular target: T1, CDK9/CyclinT (Homo sapiens, UniProt P50750); assay: CDK9/CyclinT in vitro kinase activity, single concentration 1 μM; assay type: biochemical; settings: single concentration 1 μM
T1 construct: purchased BPS Bioscience 79628
T1 sequence (P50750 whole entry): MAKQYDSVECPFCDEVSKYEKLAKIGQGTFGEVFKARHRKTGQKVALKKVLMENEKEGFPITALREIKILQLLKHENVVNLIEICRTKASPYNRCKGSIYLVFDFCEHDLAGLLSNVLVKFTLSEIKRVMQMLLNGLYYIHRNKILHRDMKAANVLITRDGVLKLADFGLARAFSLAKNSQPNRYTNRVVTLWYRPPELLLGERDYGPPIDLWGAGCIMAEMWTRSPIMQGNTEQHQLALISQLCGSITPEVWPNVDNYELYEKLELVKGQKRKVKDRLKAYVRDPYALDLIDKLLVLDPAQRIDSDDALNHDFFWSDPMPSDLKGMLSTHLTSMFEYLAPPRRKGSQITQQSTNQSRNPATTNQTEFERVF
T1 sequence (O60563 whole entry partner): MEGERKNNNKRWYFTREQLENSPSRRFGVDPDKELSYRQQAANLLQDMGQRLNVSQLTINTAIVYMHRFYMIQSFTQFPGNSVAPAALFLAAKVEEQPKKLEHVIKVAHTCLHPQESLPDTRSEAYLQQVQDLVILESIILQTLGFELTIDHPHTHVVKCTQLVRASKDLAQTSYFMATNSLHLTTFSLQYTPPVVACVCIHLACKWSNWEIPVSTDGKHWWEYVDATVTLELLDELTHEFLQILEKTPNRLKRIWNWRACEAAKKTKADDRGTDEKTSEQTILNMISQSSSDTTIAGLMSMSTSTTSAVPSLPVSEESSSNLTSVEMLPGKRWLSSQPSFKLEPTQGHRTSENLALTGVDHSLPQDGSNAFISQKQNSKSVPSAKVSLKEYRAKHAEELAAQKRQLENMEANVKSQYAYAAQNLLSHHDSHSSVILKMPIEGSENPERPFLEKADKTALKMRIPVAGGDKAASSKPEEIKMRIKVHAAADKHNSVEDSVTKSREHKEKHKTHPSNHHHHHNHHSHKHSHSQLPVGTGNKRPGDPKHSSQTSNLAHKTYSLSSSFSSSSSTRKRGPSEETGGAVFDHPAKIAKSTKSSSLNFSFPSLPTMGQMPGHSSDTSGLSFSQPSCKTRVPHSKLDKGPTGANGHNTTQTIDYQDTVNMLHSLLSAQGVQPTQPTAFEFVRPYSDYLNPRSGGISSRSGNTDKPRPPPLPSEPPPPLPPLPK
Description: (§1) Kinase activity was assessed using the kinase assay kits from BPS Bioscience for CDK1, CDK9 and CDK12 with Kinase Glo MAX in duplicates. Compounds were tested at a single concentration of 1 μM for CDK1 and CDK9 activity, and in a dilution ranging from 0.64 nM to 50 μM for CDK12 activity. Chemiluminescence was read using the Neo Synergy BioTek plate reader.

CDK1 = molecular target: T2, CDK1 (Homo sapiens, UniProt P06493); assay: CDK1 in vitro kinase activity, single concentration 1 μM; assay type: biochemical; settings: single concentration 1 μM
T2 construct: purchased BPS Bioscience 79597
T2 sequence (P06493 whole entry): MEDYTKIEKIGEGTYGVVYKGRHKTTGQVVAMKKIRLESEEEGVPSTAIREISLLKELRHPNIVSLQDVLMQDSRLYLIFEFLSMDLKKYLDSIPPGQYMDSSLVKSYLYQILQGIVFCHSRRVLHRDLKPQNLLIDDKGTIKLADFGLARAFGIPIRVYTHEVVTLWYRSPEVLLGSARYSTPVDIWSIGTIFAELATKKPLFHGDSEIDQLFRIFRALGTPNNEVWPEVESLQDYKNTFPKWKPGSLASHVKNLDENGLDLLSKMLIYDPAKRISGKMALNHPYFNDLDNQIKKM
T2 sequence (P14635 whole entry partner): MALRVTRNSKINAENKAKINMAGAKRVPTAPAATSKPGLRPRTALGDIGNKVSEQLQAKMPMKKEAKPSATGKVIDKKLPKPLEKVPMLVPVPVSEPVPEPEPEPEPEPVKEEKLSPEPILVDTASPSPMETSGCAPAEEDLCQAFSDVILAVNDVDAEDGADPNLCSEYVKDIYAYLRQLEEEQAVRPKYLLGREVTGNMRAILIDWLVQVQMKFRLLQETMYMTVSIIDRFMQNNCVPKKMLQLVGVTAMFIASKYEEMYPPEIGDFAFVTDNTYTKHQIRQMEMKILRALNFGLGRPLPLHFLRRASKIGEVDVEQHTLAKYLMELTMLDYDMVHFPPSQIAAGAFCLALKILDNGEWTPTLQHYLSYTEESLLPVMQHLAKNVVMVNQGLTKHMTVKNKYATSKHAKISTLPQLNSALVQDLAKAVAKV
Description: as §1

[3] = Homo sapiens, OCI-AML-5, OCI-AML5 expressing shRNA CCNK (cyclin K), read-out: IC50 shRNA CCNK
[4] = Homo sapiens, OCI-AML-5, OCI-AML5 expressing shRNA CDK1, read-out: IC50 shRNA CDK1
[5] = Homo sapiens, OCI-AML-5, OCI-AML5 expressing shRNA CDK2, read-out: IC50 shRNA CDK2
[6] = Homo sapiens, OCI-AML-5, OCI-AML5 expressing shRNA CDK4, read-out: IC50 shRNA CDK4
[7] = Homo sapiens, OCI-AML-5, OCI-AML5 expressing shRNA CDK7, read-out: IC50 shRNA CDK7
[8] = Homo sapiens, OCI-AML-5, OCI-AML5 expressing shRNA CDK9, read-out: IC50 shRNA CDK9
[9] = Homo sapiens, OCI-AML-5, OCI-AML5 cells
[10] = OCI-AML5 expressing shRNA CCNK (cyclin K), read-out: IC50 shRNA CCNK
[11] = OCI-AML5 expressing shRNA CDK1, read-out: IC50 shRNA CDK1
[12] = OCI-AML5 expressing shRNA CDK2, read-out: IC50 shRNA CDK2
[13] = OCI-AML5 expressing shRNA CDK4, read-out: IC50 shRNA CDK4
[14] = OCI-AML5 expressing shRNA CDK7, read-out: IC50 shRNA CDK7
[15] = OCI-AML5 expressing shRNA CDK9, read-out: IC50 shRNA CDK9

SMILES | % degradation cyclin K-eGFP (cyclin KeGFP) [%] | Ratio shCUL4A/shCTRL [1] | IC50 [2, 3] [nM] | IC50 [2, 4] [nM] | IC50 [2, 5] [nM] | IC50 [2, 6] [nM] | IC50 [2, 7] [nM] | IC50 [2, 8] [nM] | Class [2] | IC50 (OCI-AML5 cells; [9]) [nM] | inhibition at 1 µM (CDK9/CyclinT) [%] | inhibition at 1 µM (CDK1) [%] | class based on cellular selectivity [2] | other results
Cc1ccc(CC(=O)Nc2ncc(SCc3cccnc3)s2)cc1 [UOM-005202] | 28 | 0.7 | 2940 | 929 | 2830 | 3720 | 2860 | 1800 | 2 | 3400 | 50 | 65 | – | –
CC(C)(C)OC(=O)N1CCC(CC(=O)Nc2ncc(SCc3cccnc3)s2)C1 (stereo not drawn) [UOM-005226] | 2 | 1.24 | > 10000 | 6250 | > 10000 | > 10000 | > 10000 | > 10000 | 2 | > 10000 | 39 | 46 | – | –
O=C(Cc1cccnc1)Nc1ncc(SCc2cccnc2)s1 [UOM-005249] | 10 | 0.98 | 1850 | 908 | 2320 | 2280 | 2240 | 1180 | 2 | 2450 | 100 | 100 | Class II | –
O=C(Cc1ccc2ccccc2c1)Nc1ncc(SCc2cccnc2)s1 [UOM-005428] | 80 | 2.81 | 135 | 502 | 544 | 509 | 578 | 369 | 1 | 361 | 67 | 70 | Class I (effective cyclin K MGDs (decreased IC50 in cyclin K depleted cells only, and >65% degradation of cyclin KeGFP)) | –
O=C(Cc1ccc(-c2ccccc2)cc1)Nc1ncc(SCc2cccnc2)s1 [UOM-005429] | 80 | 2.25 | 148 | 493 | 457 | 408 | 525 | 367 | 1 | 422 | 67 | 25 | – | –
C=C(C(=O)Nc1ncc(SCc2cccnc2)s1)c1ccc(CC(C)C)cc1 [UOM-005430] | 60 | 0.36 | 7680 | 7310 | > 10000 | > 10000 | > 10000 | 7720 | mixed 1-2 | > 10000 | 82 | 83 | – | –
COc1ccc2cc([C@H](C)C(=O)Nc3ncc(SCc4cccnc4)s3)ccc2c1 [UOM-005431] | 78 | 2.43 | – | – | – | – | – | – | 1 | – | – | – | – | IC50 [2, 10]: 396 nM; IC50 [2, 11]: 1080 nM; IC50 [2, 12]: 1160 nM; IC50 [2, 13]: 979 nM; IC50 [2, 14]: 1080 nM; IC50 [2, 15]: 876 nM; IC50 (OCI-AML5 cells; OCI-AML5 cells): 895 nM; % CDK9 inhibition (CDK9/CyclinT): 78%; % CDK1 inhibition (CDK1): 53%
O=C(Cc1ccc(CNC(=O)OCC2c3ccccc3-c3ccccc32)cc1)Nc1ncc(SCc2cccnc2)s1 [UOM-005432] | 5 | 1.02 | – | – | – | – | – | – | 2 | – | – | – | Class II | IC50 [2, 10]: 753 nM; IC50 [2, 11]: 293 nM; IC50 [2, 12]: 886 nM; IC50 [2, 13]: 895 nM; IC50 [2, 14]: 807 nM; IC50 [2, 15]: 391 nM; IC50 (OCI-AML5 cells; OCI-AML5 cells): 840 nM; % CDK9 inhibition (CDK9/CyclinT): 62%; % CDK1 inhibition (CDK1): 100%
CC(=O)Nc1ccc(CC(=O)Nc2ncc(SCc3cccnc3)s2)cc1 [UOM-005473] | 67 | 2.59 | 78.6 | 154 | 197 | 227 | 221 | 152 | mixed 1-2 | 210 | 90 | 70 | – | –
O=C(Cc1ccc(NC(=O)c2cccnc2)cc1)Nc1ncc(SCc2cccnc2)s1 [UOM-005475] | 0 | 1.05 | 574 | 314 | 730 | 709 | 658 | 299 | 2 | 750 | 63 | 100 | – | –
O=C(Cc1ccc(NC(=O)c2ccncc2)cc1)Nc1ncc(SCc2cccnc2)s1 [UOM-005476] | 1 | 0.87 | 576 | 350 | 574 | 626 | 646 | 270 | 2 | 660 | 66 | 87 | Class II | –
O=C(Cc1coc2cc3c(cc12)CCC3)Nc1ncc(SCc2cccnc2)s1 [UOM-005479] | 76 | 1.94 | 888 | 2240 | 2420 | 1920 | 2270 | 1690 | 1 | 1950 | 100 | 37 | Class I (effective cyclin K MGDs (decreased IC50 in cyclin K depleted cells only, and >65% degradation of cyclin KeGFP)) | –
O=C(Cc1ccc(-c2ccncc2)cc1)Nc1ncc(SCc2cccnc2)s1 [UOM-005550] | 35 | 0.87 | 481 | 566 | 912 | 897 | 916 | 554 | mixed 1-2 | 1070 | 64 | 35 | – | –
CN(C)c1ccc(CC(=O)Nc2ncc(C(C)(C)C)s2)cc1 [UOM-005605] | 76 | 4.63 | – | – | – | – | – | – | 1 | – | – | – | Class I (effective cyclin K MGDs (decreased IC50 in cyclin K depleted cells only, and >65% degradation of cyclin KeGFP)) | IC50 [2, 10]: 341 nM; IC50 [2, 11]: 1140 nM; IC50 [2, 12]: 1140 nM; IC50 [2, 13]: 996 nM; IC50 [2, 14]: 1080 nM; IC50 [2, 15]: 968 nM; IC50 (OCI-AML5 cells; OCI-AML5 cells): 1040 nM; % CDK9 inhibition (CDK9/CyclinT): 5%; % CDK1 inhibition (CDK1): 1%
O=C(Cc1ccc(N2CCOCC2)cc1)Nc1ncc(SCc2cccnc2)s1 [UOM-005606] | 45 | 1.07 | 785 | 700 | 1440 | 1840 | 1470 | 794 | mixed 1-2 | 1330 | 65 | 81 | – | –
